US12030908B2, “Antimicrobial compounds, compositions, and uses thereof” (Lakewood Amedex, Inc., priority 2017, dated 2024)
Where “and” joins values, the source holds several entries; their conditions need not be identical. Identical values can stand only once.

Tests used:
[1] = test system: wild type E. coli (ATCC 25922); assay: Bacterial cytological profiling at pH 4, 5.5, 7 (Example 7), E. coli; format: cell-based; settings: pH 5.5 and 7
Method: This bacterial cytological profiling (BCP) investigation uses methods and materials described previously by Nonejuie, P., Burkart, M., Poglianoa, K., Pogiano, J. (2013). Bacterial cytological profiling rapidly identifies the cellular pathways targeted by antibacterial molecules. Proc. Natl. Acad. Sci. U.S.A. 110(40):16169-16174. doi: 10.1073/pnas.1311066110.
For viable cell counts, cells are grown to OD600≈0.4 and diluted 1:1 into buffered or unbuffered media containing various compound concentrations. Samples are then collected and serially diluted (1:10) on a 96 well plate. Five microliters from each well are spotted on LB plates, incubated at 30° C., and viable cells are counted the next day.
Samples are collected at 10, 30, 120, and 240 min of exposure for viable cell count and imaging. For imaging, E. coli and S. aureus 200 μL of treated cells per time point are stained with 0.8 μg/mL FM4-64, 1.5 μg/mL DAPI, and 0.4 μM SYTOXGreen (Molecular Probes/Invitrogen). P. aeruginosa samples are stained 0.4 μM SYTOX Green, 28 μg/mL DAPI, and 1 μg/mL FM 4-64. Cells are transferred to an agarose pad (20% LB, 1% agarose) for imaging.
For Nu-3 and Nu-8 stocks (at pH 4, 5.5 and 7), stock concentration is 500 mg/mL. For pH 4, the stocks are prepared by dissolving Nu-3 in 25 mM citrate buffer and Nu-8 in 350 mM citric acid. […]

[2] = test system: Streptococcus pneumoniae (PRSP); assay: MIC at pH 3.5, CLSI, Mueller-Hinton broth; format: cell-based
[3] = test system: Aspergillus fumigatus (ATCC13073); assay: Neutropenic lung infection model in mice, lung fungal burden and mortality (Example 24); format: in vivo, BALB/c mice
Method: Neutropenic, BALB/c female mice, all of which were from 6 to 8 weeks of age, were infected intranasally with Aspergillus fumigatus (ATCC13073) at inoculum strengths of ˜1×10^6 conidia/animal (Part A) and ˜1×10^4 conidia/animal (Part B). Twenty four hours after infection, animals were treated by aerosol route with vehicle and Nu-8 (10% solution) for one, two, three, and five days. Two hours following treatment, groups of mice were terminated on days 1, 3, and 5, and lungs were collected to determine fungal load. A similar procedure was followed at inoculum strengths of ˜1×10^3 conidia/animal (Part C) and ˜1×10^2 conidia/animal (Part D).
This experiment was performed in four parts: Part A (infection with 1×10^6 conidia/animal), Part B (infection with 1×10^4 conidia/animal), Part C (infection with 1×10^3 conidia/animal), and Part D (infection with 1×10^2 conidia/animal). The mice were separated into cohorts in accordance with Table 13 (Part A), Table 14 (Part B), Table 15 (Part C), and Table 16 (Part D).
On day −4 (four days before the date of infection), each mouse was dosed with a single intraperitoneal injection of cyclophosphamide equivalent to 150 mg/kg and returned to its cage. On day −1 (one day before infection) each mouse received a dose equivalent to 100 mg/kg of cyclophosphamide. Neutropenia was confirmed with differential leukocyte count on day 0.
One week before infection, an aliquot from the glycerol stocks of Aspergillus fumigatus (ATCC13073) was taken and grown on Potato Dextrose Agar (PDA) plates for seven days in an incubator at 25° C. After seven days, conidia were collected by scraping the colonies from the PDA plate with a sterile loop and washing the surface of the plate with sterile distilled water. The conidial suspension was collected into a sterile tube and filtered through 10 layers of sterile cheese (muslin) cloth/Whatman filter paper to remove hyphal fragments from the spore suspension. The optical density of the filtered suspension was adjusted to an equivalent of ˜1×10^8 conidia/ml. The inoculum was serially diluted in normal saline and viability was checked by hemocytometer.
Animals were divided into different groups as specified in the experimental design (Tables 13-16). Infections were conducted in a biological safety cabinet, with appropriate personnel protection. Mice were placed into an induction chamber and anesthesia was induced by exposing the animals to 3%-5% Isoflurane in an oxygen flow set at approximately 1 liter per minute (LPM). Once the animals were in a sufficiently deep plane of anesthesia, they were removed and infected. Infection was done by injection of 0.02 ml (containing ˜1×10^8 CFU/ml for Part A, ˜1×10^6 CFU/ml for Part B, ˜1×10^5 CFU/ml for Part C, and ˜1×10^4 CFU/ml for Part D). 10 μl was instilled into each nostril of the anesthetized animal (˜2×10^6 CFU/animal for Part A, ˜2×10^4 CFU/animal for Part B, ˜2×10^3 CFU/animal for Part C, ˜2×10^2 CFU/animal for Part D) using a 10 μl pipette. A gentle shaking/mixing of inoculum between two animals was followed for uniform distribution.
The vehicle used for the test compound was saline (0.9% NaCl adjusted to pH 3.5 with citric acid). To make 10% solution, 15 g Nu-8 was weighed and dissolved in 145 ml of the saline and the pH of the solution was adjusted to 3.5 with citric acid (0.1 M) in a final volume of 150 ml.
Treatment began twenty four hours after infection. Test formulations were administered by aerosol route with nose only apparatus connected to a nebulizer (Omron Ne-C28 Compressor Nebulizer with a volume capacity of 15 ml, Particle size 3 μm, Nebulization rate: 0.5 ml/min and Aerosol output rate: 0.09 ml/min). Test formulations were placed into the nebulizer fluid cup; animals were placed in the nose-only apparatus, and the entire system was placed inside a Class II Biosafety Cabinet. […]

CCCCOP(=O)(O)OC[C@H]1O[C@@H](n2ccc(N)nc2=O)C[C@@H]1OP(=O)(O)OCCCC [Nu-8, sodium ((2R,3S,5R)-5-(4-amino-2-oxopyrimidin-1(2H)-yl)-3-((butoxyoxidophosphor-yl)oxy)tetrahydrofuran-2-yl)methyl butyl phosphate]
effect on cell permeability, cell viability and growth [1]: alters E. coli cell permeability and reduces cell viability and growth | Nu-8 MIC (mg/mL) at pH 3.5 [2]: 9.38-18.75 mg/mL | Log10 CFU/g lung ([3]; Part A, 1×10^6 conidia/animal, 10% aerosol single dose, individual mice): 6.16 Log10 CFU/g lung and 5.71 Log10 CFU/g lung and 4.51 Log10 CFU/g lung and 5.41 Log10 CFU/g lung and 5.14 Log10 CFU/g lung and 5.76 Log10 CFU/g lung | % Mortality ([3]; Part A, 10% aerosol, 3 doses, once daily for 3 days, day 3): 50% and 50 [day 3] % | Log10 CFU/g lung ([3]; Part A, 10% aerosol, 3 doses, once daily for 3 days, individual surviving mice): 4.96 Log10 CFU/g lung and 5.48 Log10 CFU/g lung and 3.23 Log10 CFU/g lung | Mean ± SD (Log10 CFU/g lung) ([3]; Part A, 10% aerosol, 3 doses, once daily for 3 days, n = 3): 4.56 ± 1.18 Log10 CFU/g lung | Log10 CFU/g lung ([3]; Part A, 10% aerosol, 5 doses, once daily for 5 days, individual surviving mice): 4.28 Log10 CFU/g lung and 4.06 Log10 CFU/g lung | Mean (Log10 CFU/g lung) ([3]; Part A, 10% aerosol, 5 doses, once daily for 5 days, n = 2): 4.17 (n = 2) Log10 CFU/g lung | efficacy vs day 1 control and day 3 vehicle controls ([3]; Part A, day 3 and day 5): marked efficacy | efficacy vs vehicle control ([3]; Part A, single dose (day 1), p>0.05): did not show significant efficacy | mean fungal count ([3]; Part A, treated with Nu-8 (10%) for three days, day 3): 4.56 log10 spores/g lung | mean fungal count ([3]; Part A, treatment with Nu-8 (10%), day 5): 4.17 log10 spores/g lung | Mean ± SD (Log10 spores/g lung) ([3]; Part B, 1×10^4 conidia/animal, 10% aerosol single dose (Table 20 group 3), terminated day 3): 4.41±0.29 Log10 spores/g lung | Log10 spores/g lung ([3]; Part B, 1×10^4 conidia/animal, 10% aerosol single dose, terminated day 3, individual mice): 3.99 Log10 spores/g lung and 4.72 Log10 spores/g lung and 4.51 Log10 spores/g lung and 4.83 Log10 spores/g lung and 4.23 Log10 spores/g lung and 4.45 Log10 spores/g lung and 4.14 Log10 spores/g lung and 4.34 Log10 spores/g lung | Mean ± SD (Log10 spores/g lung) ([3]; Part B, 10% aerosol, 3 doses, once daily for 3 days): 4.31±0.29 Log10 spores/g lung | Log10 spores/g lung ([3]; Part B, 10% aerosol, 3 doses, once daily for 3 days, individual mice): 4.29 Log10 spores/g lung and 4.45 Log10 spores/g lung and 3.93 Log10 spores/g lung and 4.28 Log10 spores/g lung and 4.34 Log10 spores/g lung and 4.87 Log10 spores/g lung and 4.24 Log10 spores/g lung and 4.03 Log10 spores/g lung | Mean ± SD (Log10 spores/g lung) ([3]; Part C, 1×10^3 conidia/animal, 10% aerosol, 3 doses, once daily for 3 days): 3.65±0.50 Log10 spores/g lung | Log10 spores/g lung ([3]; Part C, 1×10^3 conidia/animal, 10% aerosol, 3 doses, once daily for 3 days, individual mice): 4.30 Log10 spores/g lung and 3.67 Log10 spores/g lung and 3.46 Log10 spores/g lung and 4.05 Log10 spores/g lung and 3.54 Log10 spores/g lung and 2.85 Log10 spores/g lung | Mean ± SD (Log10 spores/g lung) ([3]; Part D, 1×10^2 conidia/animal, 10% aerosol, 5 doses, once daily for 5 days): 2.49±0.16 Log10 spores/g lung | Log10 spores/g lung ([3]; Part D, 1×10^2 conidia/animal, 10% aerosol, 5 doses, once daily for 5 days, individual mice): 2.71 Log10 spores/g lung and 2.23 Log10 spores/g lung and 2.50 Log10 spores/g lung and 2.52 Log10 spores/g lung and 2.44 Log10 spores/g lung and 2.56 Log10 spores/g lung
